One assay concerns the target T1, rat mGluR5 (Rattus norvegicus, UniProt P31424).
T1 construct: Rat cerebro-cortical membrane preparation was used; from tissue; host or cells: rat cerebral cortex (membrane preparation)
As to the kind of experiment: MGluR5 receptor binding test ([3H]-M-MPEP displacement, rat cerebro-cortical membrane preparation). The note with it: rat mGluR5, [3H]-M-MPEP 2 nM; read-out: mGlu5 Ki. The protocol: Rat cerebro-cortical membrane preparation was used to determine the binding characteristics of reference compounds and novel compounds to the rat mGluR5. The A18 cell line expressing hmGluR5a (purchased from Euroscreen) was used to determine binding characteristics of the chemical compounds to the human mGluR5a receptor. [3H]-M-MPEP (2 nM) was used as radioligand. The nonspecific binding was determined in the presence of 10 μM M-MPEP.

The next assay addresses T2, rat mGluR1 (Rattus norvegicus, UniProt P23385).
T2 construct: rat cerebellar membrane preparation was used; from tissue; host or cells: rat cerebellum (membrane preparation)
Kind of assay: MGluR1 receptor binding test ([3H]R214127 displacement, rat cerebellar membrane preparation). The note with it: rat mGluR1, [3H]R214127 3 nM; read-out: mGlu1 Ki. Summed up:
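Rat cerebellar membranes with 3 nM [3H]R214127; nonspecific binding defined by 1 μM R214127. IC50 from displacement curves by nonlinear regression, converted to Ki by Cheng–Prusoff.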

Some results are limits rather than exact numbers.

T1 sequence (P31424 21-1203): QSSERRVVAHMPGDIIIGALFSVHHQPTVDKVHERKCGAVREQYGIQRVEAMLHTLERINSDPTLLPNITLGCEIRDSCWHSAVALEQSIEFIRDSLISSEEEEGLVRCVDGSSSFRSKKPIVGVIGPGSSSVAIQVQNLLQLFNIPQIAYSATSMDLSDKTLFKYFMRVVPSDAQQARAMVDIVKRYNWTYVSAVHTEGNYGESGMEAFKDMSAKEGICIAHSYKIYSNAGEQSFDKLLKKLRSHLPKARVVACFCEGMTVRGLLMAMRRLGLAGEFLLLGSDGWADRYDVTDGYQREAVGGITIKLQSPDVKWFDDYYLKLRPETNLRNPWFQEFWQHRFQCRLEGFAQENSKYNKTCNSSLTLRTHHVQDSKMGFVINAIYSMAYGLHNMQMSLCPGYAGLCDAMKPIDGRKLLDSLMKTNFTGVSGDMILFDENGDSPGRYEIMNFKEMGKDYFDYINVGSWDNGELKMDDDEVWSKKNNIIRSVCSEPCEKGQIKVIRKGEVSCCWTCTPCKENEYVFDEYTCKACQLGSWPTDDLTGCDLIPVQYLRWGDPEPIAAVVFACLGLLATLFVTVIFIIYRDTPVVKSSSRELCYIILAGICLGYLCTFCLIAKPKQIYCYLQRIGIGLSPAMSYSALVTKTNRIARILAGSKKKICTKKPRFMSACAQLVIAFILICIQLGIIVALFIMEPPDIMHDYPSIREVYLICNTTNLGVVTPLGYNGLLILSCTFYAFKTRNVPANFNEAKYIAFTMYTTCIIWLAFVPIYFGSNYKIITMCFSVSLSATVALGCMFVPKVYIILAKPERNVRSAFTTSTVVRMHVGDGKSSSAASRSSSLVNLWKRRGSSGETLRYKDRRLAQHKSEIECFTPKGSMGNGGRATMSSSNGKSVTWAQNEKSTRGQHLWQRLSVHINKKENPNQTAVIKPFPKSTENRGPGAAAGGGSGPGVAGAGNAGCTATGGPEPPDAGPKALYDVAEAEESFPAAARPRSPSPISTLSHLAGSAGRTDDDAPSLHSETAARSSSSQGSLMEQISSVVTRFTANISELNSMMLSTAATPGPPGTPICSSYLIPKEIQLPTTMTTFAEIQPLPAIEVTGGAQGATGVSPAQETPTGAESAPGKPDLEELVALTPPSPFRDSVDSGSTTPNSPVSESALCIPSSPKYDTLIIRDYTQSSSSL
T2 sequence (P23385 19-1199): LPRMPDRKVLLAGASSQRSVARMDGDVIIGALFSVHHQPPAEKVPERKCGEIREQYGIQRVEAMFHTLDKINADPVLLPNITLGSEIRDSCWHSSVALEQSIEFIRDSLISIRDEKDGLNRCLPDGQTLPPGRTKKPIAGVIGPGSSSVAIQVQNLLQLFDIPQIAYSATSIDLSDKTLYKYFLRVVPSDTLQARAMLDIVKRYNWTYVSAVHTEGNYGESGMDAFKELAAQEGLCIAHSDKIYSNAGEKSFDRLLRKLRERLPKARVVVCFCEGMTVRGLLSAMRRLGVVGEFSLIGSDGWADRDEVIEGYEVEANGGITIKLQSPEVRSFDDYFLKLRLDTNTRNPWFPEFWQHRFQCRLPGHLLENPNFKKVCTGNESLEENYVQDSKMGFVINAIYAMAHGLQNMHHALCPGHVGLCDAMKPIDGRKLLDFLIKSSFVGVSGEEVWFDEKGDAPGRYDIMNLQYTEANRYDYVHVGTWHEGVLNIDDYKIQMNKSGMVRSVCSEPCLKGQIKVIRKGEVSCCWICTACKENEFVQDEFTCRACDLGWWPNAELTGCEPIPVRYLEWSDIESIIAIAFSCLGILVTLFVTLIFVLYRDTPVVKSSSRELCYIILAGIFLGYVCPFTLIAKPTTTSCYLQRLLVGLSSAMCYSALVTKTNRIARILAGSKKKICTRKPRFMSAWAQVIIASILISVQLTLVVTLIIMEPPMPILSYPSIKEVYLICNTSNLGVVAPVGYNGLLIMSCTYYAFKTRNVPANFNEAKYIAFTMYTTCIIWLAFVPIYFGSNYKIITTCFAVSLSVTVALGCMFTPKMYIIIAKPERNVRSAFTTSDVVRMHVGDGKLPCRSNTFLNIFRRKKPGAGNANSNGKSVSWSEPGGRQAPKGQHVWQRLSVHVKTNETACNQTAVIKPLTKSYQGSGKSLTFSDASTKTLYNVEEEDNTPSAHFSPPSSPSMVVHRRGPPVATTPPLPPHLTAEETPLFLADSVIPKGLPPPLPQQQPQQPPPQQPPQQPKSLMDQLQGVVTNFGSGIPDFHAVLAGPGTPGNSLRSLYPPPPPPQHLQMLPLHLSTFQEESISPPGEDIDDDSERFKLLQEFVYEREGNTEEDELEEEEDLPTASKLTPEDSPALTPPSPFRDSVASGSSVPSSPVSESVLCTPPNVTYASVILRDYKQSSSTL

The term Ki denotes the dissociation constant of the complex between target and ligand, obtained from inhibition or displacement. Consider `N#Cc1ccc2c(-c3ccccc3F)c(S(=O)(=O)c3ccc(F)c(Cl)c3)cnc2c1` [Compound 195], for which the inhibition constant Ki is less than 200 nM on rat mGluR5 and more than 500 nM on rat mGluR1.

For the compound `O=S(=O)(c1ccc(F)c(F)c1)c1cnc2c(F)c(Cl)ccc2c1-c1cccc(F)c1` [Compound 196], the Ki was less than 200 nM on rat mGluR5 and more than 500 nM at rat mGluR1.

As for `O=S(=O)(c1ccc(F)c(Cl)c1)c1cnc2c(F)c(Cl)ccc2c1-c1ccc(Cl)cc1` [Compound 197], the Ki was less than 200 nM at rat mGluR5 and more than 500 nM at rat mGluR1.

For `O=S(=O)(c1cc(F)cc(F)c1)c1cnc2cc(F)c(Cl)cc2c1-c1ccc(Cl)cc1` [Compound 198], the Ki on rat mGluR5 and on rat mGluR1 was more than 500 nM each time.

For the compound `N#Cc1ccc2c(-c3ccccc3F)c(S(=O)(=O)c3cc(F)cc(F)c3)cnc2c1` [Compound 199], the inhibition constant (Ki) on rat mGluR5 was 200 to 500 nM; at rat mGluR1, more than 500 nM.

Take `N#Cc1ccc2ncc(S(=O)(=O)c3cc(Cl)cc(Cl)c3)c(-c3ccccc3F)c2c1` [Compound 200]: the Ki at rat mGluR5 and on rat mGluR1 was more than 500 nM in each case.

Consider `O=S(=O)(c1cc(F)cc(F)c1)c1cnc2cc(Cl)c(F)cc2c1-c1ccc(Cl)cc1` [Compound 201], for which the Ki at rat mGluR5 and on rat mGluR1 was more than 500 nM throughout.

Turning to `O=S(=O)(c1cc(F)cc(F)c1)c1cnc2cc(Cl)c(F)cc2c1-c1ccc(F)cc1` [Compound 202], the Ki on rat mGluR5 is 200 to 500 nM; on rat mGluR1 it was more than 500 nM.

Regarding `O=S(=O)(c1ccc(F)c(Cl)c1)c1cnc2c(F)c(Cl)ccc2c1-c1cccc(F)c1` [Compound 203], the results for the Ki on rat mGluR5 and on rat mGluR1 were less than 200 nM and more than 500 nM, respectively.

`O=S(=O)(c1ccc(F)c(F)c1)c1cnc2c(F)c(Cl)ccc2c1-c1ccc(Cl)cc1` [Compound 204]: the inhibition constant Ki on rat mGluR5 is less than 200 nM; on rat mGluR1, more than 500 nM.

Consider `O=S(=O)(c1ccc(F)c(Cl)c1)c1cnc2c(F)c(Cl)ccc2c1-c1ccc(F)cc1` [Compound 205], for which the Ki on rat mGluR5 was less than 200 nM; at rat mGluR1, more than 500 nM.

On to `N#Cc1cc(S(=O)(=O)c2cnc3ccccc3c2-c2cccc(F)c2)ccc1F` [Compound 206], for which the results for the Ki at rat mGluR5 and at rat mGluR1 were less than 200 nM and more than 500 nM, respectively.

For the compound `N#Cc1cc(F)cc(S(=O)(=O)c2cnc3ccccc3c2-c2cccc(F)c2)c1` [Compound 207], the Ki on rat mGluR5 is less than 200 nM; at rat mGluR1, more than 500 nM.

Take `O=S(=O)(c1ccc(F)c(Cl)c1)c1cnc2c(F)cccc2c1-c1ccc(Cl)cc1` [Compound 208]: the figures for the Ki at rat mGluR5 and at rat mGluR1 were less than 200 nM and 200 to 500 nM, respectively.

For the compound `O=S(=O)(c1ccc(F)c(Cl)c1)c1cnc2c(F)cccc2c1-c1ccccc1F` [Compound 209], the figures for the Ki on rat mGluR5 and at rat mGluR1 were less than 200 nM and 200 to 500 nM, respectively.

On to `O=S(=O)(c1ccc(F)c(Cl)c1)c1cnc2c(F)cccc2c1-c1cccc(F)c1` [Compound 210], for which the Ki on rat mGluR5 was less than 200 nM; on rat mGluR1, 200 to 500 nM.

For `N#Cc1cc(S(=O)(=O)c2cnc3ccccc3c2-c2ccc(F)cc2)ccc1F` [Compound 211], the inhibitory constant (Ki) at rat mGluR5 is less than 200 nM; at rat mGluR1, more than 500 nM.

Regarding `O=S(=O)(c1ccc(F)c(Cl)c1)c1cnc2c(F)cccc2c1-c1ccc(F)cc1` [Compound 212], the inhibition constant (Ki) at rat mGluR5 was less than 200 nM; at rat mGluR1, 200 to 500 nM.

Regarding `N#Cc1cccc(S(=O)(=O)c2cnc3c(F)cccc3c2-c2ccccc2F)c1` [Compound 213], the inhibition constant Ki at rat mGluR5 is less than 200 nM; on rat mGluR1 it was more than 500 nM.

On to `N#Cc1cccc(S(=O)(=O)c2cnc3ccccc3c2-c2cccc(F)c2)c1` [Compound 214], for which the inhibition constant Ki on rat mGluR5 is less than 200 nM; on rat mGluR1, more than 500 nM.

Consider `N#Cc1cccc(S(=O)(=O)c2cnc3c(F)cccc3c2-c2cccc(F)c2)c1` [Compound 215], for which the values for the Ki at rat mGluR5 and on rat mGluR1 were less than 200 nM and more than 500 nM, respectively.

In the case of `N#Cc1cc(S(=O)(=O)c2cnc3cc(F)ccc3c2-c2cccc(F)c2)ccc1F` [Compound 216], the Ki on rat mGluR5 was less than 200 nM; at rat mGluR1, more than 500 nM.

On to `N#Cc1cc(S(=O)(=O)c2cnc3ccccc3c2-c2cccc(Cl)c2)ccc1F` [Compound 217], for which the inhibitory constant (Ki) at rat mGluR5 is less than 200 nM; at rat mGluR1, more than 500 nM.

Turning to `N#Cc1cc(F)cc(S(=O)(=O)c2cnc3cc(F)ccc3c2-c2ccc(F)cc2)c1` [Compound 218], the Ki at rat mGluR5 is less than 200 nM; at rat mGluR1, more than 500 nM.

With `N#Cc1cc(S(=O)(=O)c2cnc3cc(Cl)ccc3c2-c2cccc(F)c2)ccc1F` [Compound 219], the inhibitory constant (Ki) at rat mGluR5 and on rat mGluR1 was less than 200 nM in each case.

As to `O=S(=O)(c1cc(Cl)cc(Cl)c1)c1cnc2c(F)cccc2c1-c1ccc(F)c(F)c1` [Compound 220], the Ki on rat mGluR5 was less than 200 nM; at rat mGluR1 it was more than 500 nM.

For the compound `N#Cc1cc(F)cc(S(=O)(=O)c2cnc3cc(Cl)ccc3c2-c2cccc(F)c2)c1` [Compound 221], the results for the Ki on rat mGluR5 and at rat mGluR1 were less than 200 nM and 200 to 500 nM, respectively.

Turning to `N#Cc1cccc(S(=O)(=O)c2cnc3c(F)cccc3c2-c2ccc(F)cc2)c1` [Compound 222], the Ki at rat mGluR5 was less than 200 nM; on rat mGluR1, more than 500 nM.

For `O=S(=O)(c1cc(Cl)cc(Cl)c1)c1cnc2c(F)cccc2c1-c1ccccc1F` [Compound 223], the Ki is less than 200 nM on rat mGluR5 and more than 500 nM on rat mGluR1.

`O=S(=O)(c1ccc(F)c(Cl)c1)c1cnc2cc(F)ccc2c1-c1ccccc1F` [Compound 224]: the Ki at rat mGluR5 is less than 200 nM; at rat mGluR1, 200 to 500 nM.

For `N#Cc1cccc(S(=O)(=O)c2cnc3c(F)cccc3c2-c2ccc(Cl)cc2)c1` [Compound 225], the results for the Ki at rat mGluR5 and on rat mGluR1 were less than 200 nM and more than 500 nM, respectively.

Consider `N#Cc1cc(F)cc(S(=O)(=O)c2cnc3ccccc3c2-c2cccc(Cl)c2)c1` [Compound 226], for which the Ki at rat mGluR5 is less than 200 nM; on rat mGluR1 it was more than 500 nM.

On to `N#Cc1cccc(S(=O)(=O)c2cnc3cc(Cl)ccc3c2-c2ccccc2F)c1` [Compound 227], for which the Ki at rat mGluR5 and at rat mGluR1 was less than 200 nM each time.

Regarding `N#Cc1cc(F)cc(S(=O)(=O)c2cnc3cc(F)ccc3c2-c2cccc(F)c2)c1` [Compound 228], the Ki was less than 200 nM at rat mGluR5 and more than 500 nM at rat mGluR1.

Consider `O=S(=O)(c1ccc(F)c(Cl)c1)c1cnc2c(F)cccc2c1-c1cccc(Cl)c1` [Compound 229], for which the values for the Ki at rat mGluR5 and at rat mGluR1 were less than 200 nM and 200 to 500 nM, respectively.

Take `N#Cc1cccc(S(=O)(=O)c2cnc3cc(F)ccc3c2-c2ccccc2F)c1` [Compound 230]: the results for the Ki on rat mGluR5 and on rat mGluR1 were less than 200 nM and more than 500 nM, respectively.

Consider `N#Cc1cc(F)cc(S(=O)(=O)c2cnc3cc(F)ccc3c2-c2ccc(F)c(F)c2)c1` [Compound 231], for which the Ki on rat mGluR5 was less than 200 nM; at rat mGluR1 it was more than 500 nM.

For the compound `N#Cc1cc(S(=O)(=O)c2cnc3ccccc3c2-c2ccc(Cl)c(Cl)c2)ccc1F` [Compound 232], the Ki at rat mGluR5 is less than 200 nM; at rat mGluR1, more than 500 nM.

For `O=S(=O)(c1ccc(F)c(Cl)c1)c1cnc2cc(Cl)ccc2c1-c1ccccc1F` [Compound 233], the Ki on rat mGluR5 and at rat mGluR1 was less than 200 nM in each case.

Turning to `N#Cc1cccc(S(=O)(=O)c2cnc3cc(Cl)ccc3c2-c2cccc(F)c2)c1` [Compound 234], the Ki at rat mGluR5 and on rat mGluR1 was less than 200 nM each time.

For `N#Cc1cc(S(=O)(=O)c2cnc3cc(F)ccc3c2-c2cccc(Cl)c2)ccc1F` [Compound 235], the values for the Ki at rat mGluR5 and at rat mGluR1 were less than 200 nM and more than 500 nM, respectively.

As to `O=S(=O)(c1ccc(F)c(F)c1)c1cnc2c(F)cccc2c1-c1cc(F)cc(F)c1` [Compound 236], the Ki on rat mGluR5 is less than 200 nM; on rat mGluR1, 200 to 500 nM.

On to `O=S(=O)(c1ccc(F)c(F)c1)c1cnc2ccccc2c1-c1ccc(F)cc1` [Compound 237], for which the values for the Ki on rat mGluR5 and on rat mGluR1 were less than 200 nM and more than 500 nM, respectively.

For the compound `O=S(=O)(c1ccc(F)c(F)c1)c1cnc2c(F)cccc2c1-c1ccc(F)c(F)c1` [Compound 238], the results for the Ki on rat mGluR5 and at rat mGluR1 were less than 200 nM and more than 500 nM, respectively.

Regarding `O=S(=O)(c1cc(Cl)cc(Cl)c1)c1cnc2cc(F)ccc2c1-c1ccc(F)c(F)c1` [Compound 239], the Ki at rat mGluR5 was less than 200 nM; at rat mGluR1 it was more than 500 nM.

Consider `O=S(=O)(c1ccc(F)c(F)c1)c1cnc2ccccc2c1-c1cccc(F)c1` [Compound 240], for which the inhibition constant Ki at rat mGluR5 was less than 200 nM; at rat mGluR1 it was more than 500 nM.

In the case of `N#Cc1cccc(S(=O)(=O)c2cnc3cc(Cl)ccc3c2-c2ccc(F)cc2)c1` [Compound 241], the inhibition constant Ki is less than 200 nM on rat mGluR5 and 200 to 500 nM on rat mGluR1.

As for `N#Cc1cc(S(=O)(=O)c2cnc3cc(Cl)ccc3c2-c2cccc(Cl)c2)ccc1F` [Compound 242], the Ki at rat mGluR5 and at rat mGluR1 was less than 200 nM each time.

For the compound `O=S(=O)(c1ccc(F)c(F)c1)c1cnc2c(F)cccc2c1-c1ccccc1F` [Compound 243], the inhibitory constant (Ki) at rat mGluR5 was less than 200 nM; at rat mGluR1, more than 500 nM.

As to `N#Cc1cc(F)cc(S(=O)(=O)c2cnc3cc(F)ccc3c2-c2cccc(Cl)c2)c1` [Compound 244], the inhibition constant (Ki) on rat mGluR5 was less than 200 nM; at rat mGluR1 it was more than 500 nM.

Regarding `N#Cc1cccc(S(=O)(=O)c2cnc3cc(F)ccc3c2-c2cc(F)cc(F)c2)c1` [Compound 245], the results for the Ki at rat mGluR5 and on rat mGluR1 were less than 200 nM and 200 to 500 nM, respectively.

Take `N#Cc1cccc(S(=O)(=O)c2cnc3c(F)cccc3c2-c2cccc(Cl)c2)c1` [Compound 246]: the Ki at rat mGluR5 is less than 200 nM; at rat mGluR1, more than 500 nM.

For `O=S(=O)(c1ccc(F)c(F)c1)c1cnc2cc(F)ccc2c1-c1ccc(Cl)cc1` [Compound 247], the Ki was less than 200 nM at rat mGluR5 and more than 500 nM at rat mGluR1.

Consider `O=S(=O)(c1ccc(Cl)c(Cl)c1)c1cnc2cc(Cl)ccc2c1-c1ccc(F)c(F)c1` [Compound 248], for which the inhibitory constant (Ki) at rat mGluR5 is less than 200 nM; on rat mGluR1 it was 200 to 500 nM.

(Values after patent publication US8063220B2, “Sulfonyl-quinoline derivatives” (Richter Gedeon Nyrt., priority 2007, dated 2011).)
